The experiment concerns bovine tubulin. The experiment in a line: In vitro tubulin polymerization assay (turbidity at 340 nm). It counts as biochemical. The following applies: 10 μM compound, 30 minute data point, vs 1% DMSO control. Here is the method: Briefly, tubulin polymerization is a kinetic process that is temperature-dependent and requires GTP and was performed as follows. Soluble tubulin dimers polymerize into microtubules upon warming, and polymerization in vitro correlates with an increase in turbidity (measured at 340 nm). Lyophilized bovine tubulin (HTS Tubulin—97% tubulin, <3% MAPs—Cytoskeleton Inc.) was ressuspended in G-PEM buffer (80 mM PIPES pH 7, 1 mM EGTA, 1 mM MgCl2, 1 mM GTP, 5% glycerol) to a final concentration of 3 mg/ml and kept at 4° C. Compounds in 100× stock solutions in DMSO were dotted to pre-warmed 96-well plates (Corning Costar 3696), the plates were transferred to a 37° C. plate reader (SPECTRAmax Plus, Molecular Devices), cold tubulin was added to the wells, and the plates were shaken for mixing. The absorbance at 340 nm was determined at one minute intervals for 30 minutes. Kinetic curves with 30 points each were collected for each compound, and the dynamic range was between 0 and 0.4 OD units. The percentage inhibition values were calculated using the 30 minute data point and based on control samples (treated with 1% DMSO only). The assay is a modified version of the HTS kit sold by Cytoskeleton (1830 S. Acoma St., Denver, Colo.), adapted to maximize throughput and reduce time, without reduction in dynamic range or sensitivity, while retaining the ability to detect compounds that inhibit or enhance tubulin polymerization.
Tubulin polymerization is a kinetic process that is temperature-dependent and requires GTP. Soluble tubulin dimers polymerize into microtubules upon warming, and polymerization in vitro correlates with an increase in turbidity (measured at 340 nm). Liophilized bovine tubulin (HTS Tubulin—97% tubulin, <3% MAPs—Cytoskeleton Inc.) was ressuspended in G-PEM buffer (80 mM PIPES pH 7, 1 mM EGTA, 1 mM MgCl2, 1 mM GTP, 5% glycerol) to a final concentration of 3 mg/ml and kept at 4° C. Compounds in 100× stock solutions in DMSO were dotted to pre-warmed 96-well plates (Corning Costar 3696), the plates were immediately transferred to a 37° C. plate reader (SPECTRAmax Plus, Molecular Devices), cold tubulin was added to the wells, plates were shaken for mixing, and absorbance at 340 nm was read every minute for 30 minutes. Kinetic curves with 30 points each were collected for each compound, and the dynamic range was between 0 and 0.4 OD units. Percentage inhibition values were calculated using the 30 minute data point, based on control samples (treated with 1% DMSO only). This assay is a modified version of the HTS kit sold by Cytoskeleton, adapted to maximize throughput and reduce time, without reduction in dynamic range or sensitivity, while retaining the ability to detect compounds that inhibit or enhance tubulin polymerization.

For the compound `N#Cc1ccc(S(=O)(=O)Nc2ccccc2-c2nnc(Nc3ccc4c(c3)OCCO4)[nH]2)cc1` [Compound 128, 4-Cyano-N-{2-[5-(2,3-dihydro-benzo[1,4]dioxin-6-ylamino)-4H-[1,2,4]triazol-3-yl]-phenyl}-benzenesulfonamide], the “Tubulin Assay: percent inhibition at 10 μM based on 30 minute data” value (“Tubulin Assay: percent inhibition” for short) is 42%.
Turning to `c1ccc(-c2nnc(Nc3ccc4c(c3)OCCO4)o2)c(NCc2ccc3[nH]ncc3c2)c1` [Compound 222, (2,3-Dihydro-benzo[1,4]dioxin-6-yl)-(5-{2-[(1H-indazol-5-ylmethyl)-amino]-phenyl}-[1,3,4]oxadiazol-2-yl)-amine], the “Tubulin Assay: percent inhibition” value was 95%.
Take `COc1cc(Nc2nnc(-c3cccnc3NCCc3cccnc3)o2)cc(OC)c1OC` [Compound 204, (2-Pyridin-3-yl-ethyl)-{3-[5-(3,4,5-trimethoxy-phenylamino)-[1,3,4]oxadiazol-2-yl]-pyridin-2-yl}-amine]: the “Tubulin Assay: percent inhibition” value was 28%.
Consider `COc1cccc(-c2nnc(-c3cccnc3NCc3ccncc3)[nH]2)c1` [Compound 94, {3-[5-(3-Methoxy-phenyl)-4H-[1,2,4]triazol-3-yl]-pyridin-2-yl}-pyridin-4-ylmethyl-amine], for which the “Tubulin Assay: percent inhibition” value is reported as 43%.
Take `c1cnc(NCC2COCCO2)c(-c2nnc(Nc3ccc4c(c3)OCO4)[nH]2)c1` (stereo not drawn) [Compound 47, {3-[5-(Benzo[1,3]dioxol-5-ylamino)-4H-[1,2,4]triazol-3-yl]-pyridin-2-yl}-[1,4]dioxan-2-ylmethyl-amine]: the “Tubulin Assay: percent inhibition” value is 24%.
For `COc1ccc(CNc2ncccc2-c2nnc(Nc3ccc4c(c3)OCO4)o2)cc1OC` [Compound 158, {3-[5-(Benzo[1,3]dioxol-5-ylamino)-[1,3,4]oxadiazol-2-yl]-pyridin-2-yl}-(3,4-dimethoxy-benzyl)-amine], the “Tubulin Assay: percent inhibition” value is recorded as 90%.
Regarding `Nc1ccccc1-c1nnc(Nc2ccc3c(c2)OCCO3)[nH]1` [Compound 127b, [5-(2-amino-phenyl)-4H-[1,2,4]triazol-3-yl]-(2,3-dihydro-benzo[1,4]dioxin-6-yl)-amine], the “Tubulin Assay: percent inhibition” value was found to be 20%.
On to `Nc1ccccc1-c1nnc(Nc2ccc3c(c2)OCO3)o1` [Compound 237a, [5-(2-Amino-phenyl)-[1,3,4]oxadiazol-2-yl]-benzo[1,3]dioxol-5-yl-amine], for which the “Tubulin Assay: percent inhibition” value is listed as 53%.
`c1ccc(-c2cnc(Nc3ccc4c(c3)OCCO4)o2)c(OCc2ccncc2)c1` [Compound 253, (2,3-Dihydro-benzo[1,4]dioxin-6-yl)-{5-[2-(pyridin-4-ylmethoxy)-phenyl]-oxazol-2-yl}-amine]: the “Tubulin Assay: percent inhibition” value turned out to be 44%.
Take `COCCCOc1ccccc1-c1cnc(Nc2cccc(OC)c2)o1` [Compound 258, (3-Methoxy-phenyl)-{5-[2-(3-methoxy-propoxy)-phenyl]-oxazol-2-yl}-amine]: the “Tubulin Assay: percent inhibition” value was 47%.
Next, `COc1cc(CNc2ccccc2-c2nnc(-c3cccc(OC)c3)[nH]2)cc(OC)c1` [Compound 135, (3,5-Dimethoxy-benzyl)-{2-[5-(3-methoxy-phenyl)-4H-[1,2,4]triazol-3-yl]-phenyl}-amine]: 23%; `Brc1ccc(-c2nnc(-c3ccccc3NCc3ccc4[nH]cnc4c3)[nH]2)cc1` [Compound 147, (1H-Benzoimidazol-5-ylmethyl)-{2-[5-(4-bromo-phenyl)-4H-[1,2,4]triazol-3-yl]-phenyl}-amine]: 43%; `CS(=O)(=O)c1ccc(-c2nnc(-c3cccnc3NCCc3cccnc3)[nH]2)cc1` [Compound 99, {3-[5-(4-Methanesulfonyl-phenyl)-4H-[1,2,4]triazol-3-yl]-pyridin-2-yl}-(2-pyridin-3-yl-ethyl)-amine]: 47%.
Next, `COc1cc(Nc2ncccc2-c2nnc(Nc3cccc(NCc4ccco4)c3)[nH]2)cc(OC)c1` [Compound 62, N-{5-[2-(3,5-Dimethoxy-phenylamino)-pyridin-3-yl]-4H-[1,2,4]triazol-3-yl}-N′-furan-2-ylmethyl-benzene-1,3-diamine]: 73%; `Cc1cc(C)cc(CS(=O)(=O)Nc2ccccc2-c2nnc(Nc3ccc4c(c3)OCO4)o2)c1` [Compound 240, N-{2-[5-(Benzo[1,3]dioxol-5-ylamino)-[1,3,4]oxadiazol-2-yl]-phenyl}-C-(3,5-dimethyl-phenyl)-methanesulfonamide]: 20%.
`c1cnc(NCC2CCCO2)c(-c2nnc(Nc3ccc4c(c3)OCO4)o2)c1` (stereo not drawn) [Compound 174, {3-[5-(Benzo[1,3]dioxol-5-ylamino)-[1,3,4]oxadiazol-2-yl]-pyridin-2-yl}-(tetrahydro-furan-2-ylmethyl)-amine]: the “Tubulin Assay: percent inhibition” value came to 64%.
Take `Cn1nc(-c2cccnc2NCc2ccncc2)nc1Nc1ccc2c(c1)OCCO2` [Compound 68, {3-[5-(2,3-Dihydro-benzo[1,4]dioxin-6-ylamino)-1-methyl-1H-[1,2,4]triazol-3-yl]-pyridin-2-yl}-pyridin-4-ylmethyl-amine]: the “Tubulin Assay: percent inhibition” value is recorded as 58%.
With `COc1cccc(Nc2ncc(-c3ccccc3NCc3cc(OC)cc(OC)c3)o2)c1` [Compound 251, {5-[2-(3,5-Dimethoxy-benzylamino)-phenyl]-oxazol-2-yl}-(3-methoxy-phenyl)-amine], the “Tubulin Assay: percent inhibition” value was determined as 30%.
Consider `c1cnc(NCC2COCCO2)c(-c2nnc(Nc3ccc4c(c3)OCCO4)[nH]2)c1` (stereo not drawn) [Compound 55, {3-[5-(2,3-Dihydro-benzo[1,4]dioxin-6-ylamino)-4H-[1,2,4]triazol-3-yl]-pyridin-2-yl}-[1,4]dioxan-2-ylmethyl-amine], for which the “Tubulin Assay: percent inhibition” value stood at 23%.
Then `c1cncc(CCNc2ncccc2-c2nnc(Nc3ccc4c(c3)OCO4)o2)c1` [Compound 200, {3-[5-(Benzo[1,3]dioxol-5-ylamino)-[1,3,4]oxadiazol-2-yl]-pyridin-2-yl}-(2-pyridin-3-yl-ethyl)-amine], with 68%.
For `COc1cc(CNc2ccccc2-c2nnc(-c3cccc(OC(F)(F)F)c3)[nH]2)cc(OC)c1` [Compound 143, (3,5-Dimethoxy-benzyl)-{2-[5-(3-trifluoromethoxy-phenyl)-4H-[1,2,4]triazol-3-yl]-phenyl}-amine], the “Tubulin Assay: percent inhibition” value is 46%.
Take `Brc1ccc(-c2nnc(-c3ccccc3NCc3ccc4cn[nH]c4c3)[nH]2)cc1` [Compound 146, {2-[5-(4-Bromo-phenyl)-4H-[1,2,4]triazol-3-yl]-phenyl}-(1H-indazol-6-ylmethyl)-amine]: the “Tubulin Assay: percent inhibition” value is 39%.
For `c1ccc(-c2nnc(Nc3ccc4c(c3)OCCO4)o2)c(NCc2cnccn2)c1` [Compound 221], the “Tubulin Assay: percent inhibition” value stood at 80%.
For `COc1cc(Nc2ncccc2-c2nc(Nc3ccc4c(c3)OCCO4)n(C)n2)cc(OC)c1` [Compound 67, {3-[5-(2,3-Dihydro-benzo[1,4]dioxin-6-ylamino)-1-methyl-1H-[1,2,4]triazol-3-yl]-pyridin-2-yl}-(3,5-dimethoxy-phenyl)-amine], the “Tubulin Assay: percent inhibition” value was found to be 76%.
With `Fc1ccc(CNc2ccccc2-c2cnc(Nc3ccc4c(c3)OCCO4)o2)cc1F` [Compound 247, {5-[2-(3,4-Difluoro-benzylamino)-phenyl]-oxazol-2-yl}-(2,3-dihydro-benzo[1,4]dioxin-6-yl)-amine], the “Tubulin Assay: percent inhibition” value was found to be 94%.
Turning to `COc1cccc(Nc2nc(-c3cccnc3Nc3cc(OC)cc(OC)c3)nn2C)c1` [Compound 66, (3,5-Dimethoxy-phenyl)-{3-[5-(3-methoxy-phenylamino)-1-methyl-1H-[1,2,4]triazol-3-yl]-pyridin-2-yl}-amine], the “Tubulin Assay: percent inhibition” value was found to be 73%.
With `Cn1nc(-c2cccnc2NCc2ccncc2)nc1Nc1ccc2c(c1)OCO2` [Compound 70, {3-[5-(Benzo[1,3]dioxol-5-ylamino)-1-methyl-1H-[1,2,4]triazol-3-yl]-pyridin-2-yl}-pyridin-4-ylmethyl-amine], the “Tubulin Assay: percent inhibition” value came to 32%.

The values above are taken from patent publication US20090048301A1 (IMCLONE SYSTEMS INCORPORATED, priority 2003, published 2009).
